The term solubility denotes the dissolved amount per volume that the medium holds.

Data set [1] in a line: Solubility assay in simulated Intestinal Fluid pH 7.5. It counts as physicochemical. To be noted: fassgf or other biorelevant, kinetic from dmso stock, shaken 24 hours at room temperature, from 10 mM DMSO stock, detection limit approximately 1 μM, read-out: Solubility test results: Conc. (μM), pH 7.5 (IF). How it is done:
Solubility of each compound was measured by adding 4 μl of a 10 mM DMSO compound stock to 396 μl buffer (either a simulated Gastric Fluid pH 1.2 (0.2% NaCl, 0.7% HCl) or simulated Intestinal Fluid pH 7.5 (0.68% KHPO4, pH with NaOH)). This was shaken for 24 hours at room temperature, spun at 14,000 rpm for 5 minutes, and the supernatant was transferred into a clean eppendorf tube. The absorption spectra of the compound-containing supernatant were measured from 220 to 400 nm and compared with the absorption spectra of a 10 μM acetonitrile stock of the same compound. The concentration of the compound in the supernatant was calculated by comparing the absorbance maximum of the compound in the simulated buffer to that in acetonitrile.

Data set [2] addresses PDE10 (Homo sapiens, UniProt Q9Y233). Briefly: PDE10 biochemical assay (scintillation proximity assay, [3H]-cGMP substrate). The method, then: The phosphodiesterase (PDE) activity was measured using a scintillation proximity assay (SPA) with [^3H]-cGMP as the substrate. Purified PDE10 was stored in 40 mM Tris-Cl (pH 8.0)/100 mM NaCl/0.04% Tween-20/20% Glycerol/3 mM DTT and then used to prepare a 10×PDE solution in 50 mM Tris-Cl (pH 7.5)/8.3 mM MgCl2/1.7 mM EGTA. Assays contained (final concentrations): 50 mM Tris-Cl (pH 7.5)/8.3 mM MgCl2/1.7 mM EGTA/0.5 mg/ml BSA/1% DMSO and 2 ng PDE10 in a final volume of 0.1 mL. Inhibition was evaluated at 8 concentrations in duplicate. Reactions were initiated by addition of enzyme and were terminated after 20 minutes at 30° C. by the addition of 50 μl of SPA beads containing Zn^++. The mixture was shaken, allowed to settle for at least 1 hour, and counted in a Wallac plate counter. Results (net cpm) were fitted to a four parameter logistic model using Excel Solver®.

The target of data set [3] is T1, PDE10 (Mus musculus, UniProt Q8CA95).
T1 sequence (Q8CA95 1-790): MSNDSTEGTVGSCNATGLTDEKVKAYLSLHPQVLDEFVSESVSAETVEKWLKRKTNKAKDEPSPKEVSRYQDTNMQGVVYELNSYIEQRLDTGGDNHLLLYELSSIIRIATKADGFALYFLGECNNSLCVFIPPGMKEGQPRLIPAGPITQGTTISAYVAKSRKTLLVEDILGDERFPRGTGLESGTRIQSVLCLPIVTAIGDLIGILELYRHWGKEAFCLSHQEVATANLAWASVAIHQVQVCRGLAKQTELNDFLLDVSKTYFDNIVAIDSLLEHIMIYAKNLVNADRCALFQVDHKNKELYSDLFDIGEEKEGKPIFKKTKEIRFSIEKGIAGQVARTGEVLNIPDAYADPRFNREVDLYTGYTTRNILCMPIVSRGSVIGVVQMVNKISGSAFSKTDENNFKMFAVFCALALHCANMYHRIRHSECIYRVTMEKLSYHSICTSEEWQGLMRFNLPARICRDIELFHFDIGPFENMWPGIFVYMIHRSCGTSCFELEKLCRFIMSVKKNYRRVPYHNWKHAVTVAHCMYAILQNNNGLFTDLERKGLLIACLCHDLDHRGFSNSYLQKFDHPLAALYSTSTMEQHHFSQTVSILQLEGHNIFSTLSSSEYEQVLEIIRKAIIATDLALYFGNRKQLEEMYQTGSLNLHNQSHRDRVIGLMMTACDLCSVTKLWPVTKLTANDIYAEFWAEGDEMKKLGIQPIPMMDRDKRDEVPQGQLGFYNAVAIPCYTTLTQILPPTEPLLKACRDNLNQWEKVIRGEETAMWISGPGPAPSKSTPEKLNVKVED
To be noted: cited from Soderling and Beavo 2000; read-out: IC50 (50% inhibitory concentration); cited from earlier work.

Where [4] appears, read: SPA, [3H]-cGMP, 20 minutes at 30° C., 8 concentrations in duplicate, read-out: Average IC50.
Setting [5] is: text statement on the PDE10 biochemical assay, read-out: IC50.

Values after ≈ are worked out from the molar mass of the structure shown. Like-named read-outs stand apart in the source and are kept apart here.

Sequence of PDE10 (Homo sapiens, UniProt Q9Y233) (Q9Y233 whole entry): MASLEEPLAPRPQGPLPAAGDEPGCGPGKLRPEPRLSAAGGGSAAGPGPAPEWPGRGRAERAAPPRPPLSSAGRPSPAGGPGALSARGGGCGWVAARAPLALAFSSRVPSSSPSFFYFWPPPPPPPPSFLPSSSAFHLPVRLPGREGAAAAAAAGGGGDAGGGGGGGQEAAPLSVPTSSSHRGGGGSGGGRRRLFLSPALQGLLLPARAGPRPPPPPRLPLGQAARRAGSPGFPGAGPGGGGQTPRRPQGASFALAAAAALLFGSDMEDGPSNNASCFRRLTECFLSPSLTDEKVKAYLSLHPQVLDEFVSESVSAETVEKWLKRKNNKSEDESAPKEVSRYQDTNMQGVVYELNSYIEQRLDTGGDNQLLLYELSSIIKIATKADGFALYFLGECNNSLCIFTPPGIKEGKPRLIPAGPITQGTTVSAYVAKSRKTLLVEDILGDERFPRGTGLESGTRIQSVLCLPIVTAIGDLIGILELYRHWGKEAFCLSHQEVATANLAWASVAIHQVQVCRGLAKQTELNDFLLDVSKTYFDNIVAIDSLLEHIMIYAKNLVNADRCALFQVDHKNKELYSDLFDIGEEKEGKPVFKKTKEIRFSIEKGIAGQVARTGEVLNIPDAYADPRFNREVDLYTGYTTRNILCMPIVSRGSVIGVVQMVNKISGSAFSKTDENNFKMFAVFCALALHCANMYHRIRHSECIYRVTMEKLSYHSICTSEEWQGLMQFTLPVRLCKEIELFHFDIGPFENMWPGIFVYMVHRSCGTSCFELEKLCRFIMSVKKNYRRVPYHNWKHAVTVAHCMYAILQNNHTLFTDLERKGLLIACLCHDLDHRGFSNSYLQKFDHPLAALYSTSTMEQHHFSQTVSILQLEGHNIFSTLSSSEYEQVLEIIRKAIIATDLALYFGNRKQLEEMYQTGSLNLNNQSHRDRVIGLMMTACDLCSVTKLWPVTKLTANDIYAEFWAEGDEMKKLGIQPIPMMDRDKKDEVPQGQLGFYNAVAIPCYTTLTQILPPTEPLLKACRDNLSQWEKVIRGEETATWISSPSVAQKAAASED

Take `CCOC(C(=O)c1ccc(-c2cc(O)c(Cl)c(OC)c2)o1)c1ccc(-c2nnc(C)s2)cc1` (centres unmarked) [Compound 1, 1-[5-(4-chloro-3-hydroxy-5-methoxyphenyl)furan-2-yl]-2-ethoxy-2-[4-(5-methyl-1,3,4-thiadiazol-yl)phenyl]ethanone]: the solubility at 24 h in data set [1] is 2.5 µM (≈ 1.21 µg/mL). The IC50 is 37.7 nM in data set [2] (setting [4]) and at most 1000 nM in data set [2] (setting [5]).

`CCOC(C(=O)c1ccc(-c2cc(OC)c(Cl)c(OC)c2)o1)c1ccc(-c2nnc(CO)s2)cc1` (centres unmarked) [Compound 2, 1-(5-(4-chloro-3,5-dimethoxyphenyl)furan-2-yl)-2-ethoxy-2-(4-(5-(hydroxymethyl)-1,3,4-thiadiazol-2-yl)phenyl)ethan-1-one]: in data set [1], the solubility at 24 h is 5.8 µM (≈ 2.99 µg/mL). Besides, the IC50 was 1.3 nM in data set [2] (setting [4]) and at most 1000 nM in data set [2] (setting [5]).

Turning to `CCOC(C(=O)c1ccc(-c2cc(OC)c(Cl)c(O[C@H]3O[C@H](C(=O)O)[C@@H](O)[C@H](O)[C@H]3O)c2)o1)c1ccc(-c2nnc(C)s2)cc1` (stereo partly drawn) [Compound 3, (2S,3S,4S,5R,6R)-6-(2-chloro-5-(5-(2-ethoxy-2-(5-methyl-1,3,4-thiadiazol-2-yl)phenyl)acetyl)furan-2-yl-methoxyphenoxy)-3,4,5-trihydroxytetrahydro-2H-pyran-2-carboxylic acid], in data set [1], the solubility at 24 h is 78.3 µM (≈ 51.8 µg/mL). Further, the results for the IC50 in data set [2] (setting [4]) and in data set [2] (setting [5]) were 652 nM and at most 1000 nM, respectively.

As for `CCOC(c1ccc(-c2nnc(C)s2)cc1)C(O)c1ccc(-c2cc(OC)c(Cl)c(OC)c2)o1` (centres unmarked) [Compound 4, 1-(5-(4-chloro-3,5-dimethoxyphenyl)furan-2-yl)-2-ethoxy-2-(4-(5-methyl-1,3,4-thiadiazol-2-yl)phenyl)ethan-1-ol], the solubility at 24 h in data set [1] is 2.5 µM (≈ 1.25 µg/mL). The figures for the IC50 in data set [2] (setting [4]) and in data set [2] (setting [5]) were 127 nM and at most 1000 nM, respectively.

Take `CCOC(C(=O)c1ccc(-c2cc(OC)c(Cl)c(OC)c2)o1)c1ccc(-c2nnc(C)s2)cc1` (centres unmarked) [Compound A, 1-(5-(4-chloro-3,5-dimethoxyphenyl)furan-2-yl)-2-ethoxy-2-(4-(5-methyl-l,3,4-thiadiazol-2-yl)phenyl)ethan-1-one, reference compound]: the solubility at 24 h in data set [1] is below 1 µM.

As for `CC(C)Cn1c(=O)n(C)c(=O)c2[nH]cnc21` [IBMX], in data set [3], the IC50 was 2600 nM.

The values above are taken from US9879002B2, “PDE10 inhibitors and related compositions and methods” (Omeros Corporation, priority 2015, dated 2018).
